Here are results for 91 compounds from PubChem BioAssay AID1421 (Emory University Molecular Libraries Screening Center, 2008).

Calls of active or inactive are those of the source. The rule behind the calls is not given here.

The target in the first test is Prostaglandin E2 receptor EP2 subtype (Homo sapiens) (UniProt P43116). Description: compounds shifting PGE2 potency at EP2 – cell-based, human EP2, PGE2 EC50 shift, dose response (AID 1421). The conditions noted are these: EP2-expressing cells, PGE2 EC50 shift by compound.
Prostaglandin E2 receptor EP2 subtype (Homo sapiens), sequence (P43116 whole entry, looked up): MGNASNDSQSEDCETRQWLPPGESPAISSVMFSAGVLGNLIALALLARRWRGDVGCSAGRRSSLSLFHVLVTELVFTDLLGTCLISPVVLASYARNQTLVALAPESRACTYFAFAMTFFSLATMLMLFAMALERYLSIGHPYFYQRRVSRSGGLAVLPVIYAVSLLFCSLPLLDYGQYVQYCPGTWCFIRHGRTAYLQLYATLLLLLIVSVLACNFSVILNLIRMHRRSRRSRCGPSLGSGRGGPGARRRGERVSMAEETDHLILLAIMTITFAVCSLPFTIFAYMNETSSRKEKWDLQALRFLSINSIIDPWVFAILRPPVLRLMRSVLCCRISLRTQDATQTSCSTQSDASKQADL
As to `OC(COc1ccccc1)Cn1c2ccccc2c2ccccc21` (stereo not given), the outcome was active. Still for that read-out and setting: to `CCCc1cc(C(=O)OC)c(NC(=O)c2cc(C)on2)s1` belongs “active”; to `O=C(N/N=C/c1cccc(F)c1)NC1CCCCC1`, “active”. Still for that read-out and setting: to `CCOc1cc(-c2noc(-c3ccncc3)n2)cc(Br)c1OC` belongs “active”; to `CCCSc1ncnc2c1oc1ccccc12`, “active”. For the compound `CC(C)Sc1cc(N2CCOCC2)nc(-c2ccc(Cl)cc2)n1`, the result was active. Take `C=CCSc1nc2ccccc2n1S(=O)(=O)c1ccc(Cl)cc1`: the outcome was active. The same measure, in the same setting: to `O=C(Nc1ccccc1N1CCCCC1)c1ccccc1F` belongs “active”. The same measure, in the same setting: the result for `CC(C)C(=O)c1cc2c(cc1NC(=O)c1ccccc1)OCCO2` reads “active”.

Staying with this test, now noted: EP2-expressing cells, PGE2 EC50 shift by compound; measured here: PGE2 EC50 at 6.7 uM compound.
Consider `Cc1ccc(-c2nn3c(C)nnc3s2)cc1NCc1c(F)cccc1Cl`, for which the PGE2 EC50 with compound was 0.91 nM. The same measure, in the same setting: the result for `CC(C)c1ccc(/C=N/Nc2cc(N3CCOCC3)nc(N3CCOCC3)n2)cc1` reads 0.98 nM; that for `c1ccc2c(c1)OCC(c1csc3ncnc(N4CCCCC4)c13)O2` (stereo not given), 2.54 nM.

Turning to `COc1ccc(OC)c(C2=Nn3c(nnc3-c3ccco3)SC2)c1`, the PGE2 EC50 with compound turned out to be 0.93 nM.

On to `CCOC(=O)c1c(-c2ccccc2)oc2ccc(OC)cc12`, for which the PGE2 EC50 with compound was found to be 1.04 nM. Same read-out and setting: the result for `S=c1[nH]nc(-c2ccccc2)n1/N=C/c1ccc(-c2ccccc2Cl)o1` reads 2.43 nM; that for `O=C(CSc1nnc(Cc2ccccc2)n1Cc1ccco1)NC12CC3CC(CC(C3)C1)C2`, 1.73 nM. Same read-out and setting: to `CCOC(=O)C1=C(N)N2C(=O)C(C)SC2=C(C(=O)OC)C1c1ccccc1OC` (stereo not given) belongs 0.51 nM; to `Oc1ccc(/C=N/N2CCN(C3c4ccccc4-c4ccccc43)CC2)c(O)c1`, 2.52 nM; to `NC(=O)CSc1nnc(-c2cccc(S(=O)(=O)N3CCOCC3)c2)n1C1CCCCCC1`, 1.37 nM. For the compound `Cc1cc(SCCC(=O)O)nc2c(C)cccc12`, the PGE2 EC50 with compound came to 1.01 nM. Still for that read-out and setting: the result for `OC(COc1ccccc1)Cn1c2ccccc2c2ccccc21` (stereo not given) reads 1.4 nM; that for `CCCc1cc(=O)n2[nH]c(NCc3cccs3)nc2n1`, 2.54 nM.

For `Cc1ccccc1-n1c(=O)[nH]c(=O)c2c(N)c(C(=O)c3ccc(Cl)cc3)sc21`, the PGE2 EC50 with compound was 0.86 nM. Same read-out and setting: to `O=C(c1ccco1)N(Cc1cccc([N+](=O)[O-])c1)c1ccc(Br)cc1` belongs 1.01 nM; to `Cc1ccc(N=Nc2c(N)[nH]n3c(=O)c4c(nc23)CCCC4)cc1`, 0.81 nM; to `Cc1onc(-c2ccccc2Cl)c1-c1nc(-c2ccncc2)no1`, 0.83 nM. Still for that read-out and setting: the result for `COc1ccc(-n2c(COc3cccc4ccccc34)nnc2SCC(=O)NCc2ccco2)cc1` reads 1.07 nM; that for `CCCCn1c(-c2csc(CCC)c2)n[nH]c1=S`, 1.28 nM. Turning to `Cc1cc(Br)c2nc3c(c(C(=O)O)c2c1)CCCCC3`, the PGE2 EC50 with compound is 2.78 nM. On to `CCOC(=O)c1c(-c2ccc(C)cc2)csc1NC(=O)c1ccc(N2C(=O)CCC2=O)cc1`, for which the PGE2 EC50 with compound came to 1.5 nM. Still for that read-out and setting: the result for `CCOC(=O)c1ccccc1NC(=O)C(C)Oc1ccccc1` (stereo not given) reads 1.35 nM; that for `c1ccc(Oc2nc3ccccc3n3cccc23)cc1`, 0.86 nM. On the same count and under the same terms, to `C=CCc1cc(C=C2C(=O)N(C)C(=O)N(C)C2=O)cc(OCC)c1OCc1ccccc1` belongs 0.94 nM; to `CCCc1cc(C(=O)OC)c(NC(=O)c2cc(C)on2)s1`, 0.7 nM.

For `COc1ccc(-c2csc3nc(C)nc(N4CCC(C)CC4)c23)cc1OC`, the PGE2 EC50 with compound was determined as 0.95 nM. The same measure, in the same setting: the result for `COc1cc(C)c(C(=O)Oc2cc(C)c(C(=O)O)c(O)c2C)c(OC)c1C` reads 0.98 nM; that for `COc1ccc(C(=O)O)cc1NC(=S)NC(=O)c1ccc(-c2ccc(Cl)cc2)o1`, 0.36 nM; that for `Cc1cc(C)c(N=C2CCCN2Cc2ccccc2)c(C#N)c1`, 1.39 nM.

As for `CC1CCN(c2nc(-c3ccncc3)nc3ccccc23)CC1`, the PGE2 EC50 with compound came out at 1 nM. On the same count and under the same terms, to `Cn1c(=O)c2c(ncn2CCSS(=O)(=O)O)n(C)c1=O` belongs 0.97 nM.

Consider `O=C(N/N=C/c1cccc(F)c1)NC1CCCCC1`, for which the PGE2 EC50 with compound turned out to be 1.1 nM. The same measure, in the same setting: to `CCOP(=O)(OCC)c1nc(-c2ccc(Cl)cc2)oc1NCc1ccccc1` belongs 0.73 nM; to `CCC(C)(C(=O)NC1CCCCC1)N(C(=O)C1CCC(=O)N1)c1ccccc1` (stereo not given), 1.17 nM; to `COc1ccccc1Nc1cc(C)nc2c(C)ccc([N+](=O)[O-])c12`, 1.12 nM. With `Cc1cc(C)n(CCOc2ccc(Cl)cc2Cl)n1`, the PGE2 EC50 with compound amounted to 0.63 nM. For `CC(C)(C)C1CCc2onc(C(=O)Nc3cccnc3)c2C1` (stereo not given), the PGE2 EC50 with compound came out at 1.31 nM. In the case of `CCOc1cc(-c2noc(-c3ccncc3)n2)cc(Br)c1OC`, the PGE2 EC50 with compound came out at 0.84 nM. Take `CCCSc1ncnc2c1oc1ccccc12`: the PGE2 EC50 with compound came out at 0.69 nM. Same read-out and setting: the result for `CCCCCCCCCc1ccc(O)cc1` reads 0.74 nM. Same read-out and setting: the result for `CCOC(=O)c1c(-c2cccs2)csc1NC(=O)COC(=O)c1c(C)noc1C` reads 0.32 nM; that for `Cc1sc(NC(=O)Cc2ccc3c(c2)OCO3)nc1-c1ccc2c(c1)CCN2C(=O)c1cccc(F)c1`, 0.97 nM; that for `COc1ccc(N=Cc2cc(Cc3ccccc3Cl)cc([N+](=O)[O-])c2O)cc1OC`, 0.65 nM. Still for that read-out and setting: the result for `COc1ccccc1C(CC(=O)c1ccccc1)CC(=O)c1ccccc1` reads 2.56 nM. With `O=C(O)CCCCCCCCCCCc1ccccc1`, the PGE2 EC50 with compound is 0.88 nM. For `CCCCCOC(=O)c1[nH]c2c(c1C)C(=O)C(C(=O)OC)C(C)C2` (stereo not given), the PGE2 EC50 with compound turned out to be 2.63 nM. On the same count and under the same terms, to `CCn1c2ccccc2c2cc([N+](=O)[O-])ccc21` belongs 0.83 nM. Still for that read-out and setting: the result for `O=c1c2c(n3nnnc3n1-c1ccccc1)-c1ccccc1CC21CCCC1` reads 1.01 nM. As for `CCCc1cc(-c2n[nH]c(=S)n2Cc2ccccc2)cs1`, the PGE2 EC50 with compound was 1.36 nM. On to `C=CCn1c(SCC(N)=O)nc(C)cc1=O`, for which the PGE2 EC50 with compound was found to be 1.07 nM. With `O=C(CSCc1cccc(Cl)c1)Nc1ccccc1-c1ccccc1`, the PGE2 EC50 with compound is 0.74 nM.

Turning to `CC(CC(=O)O)(CC(=O)O)C(=O)O`, the PGE2 EC50 with compound amounted to 0.87 nM. As to `COCCOC(=O)c1c(C)oc2ccc(OCc3ccccc3)cc12`, the PGE2 EC50 with compound was 1.04 nM.

With `Cc1c(OCc2ccccc2)c(=O)ccn1Cc1ccc(Cl)cc1`, the PGE2 EC50 with compound amounted to 1.02 nM. For `CC(C)NC(=S)N/N=C1\CCCCC1C1CCCCC1` (stereo not given), the PGE2 EC50 with compound was found to be 1.34 nM. Still for that read-out and setting: to `CC1(C)Cc2ccccc2-c2nc3n(c(=O)c21)CCS3` belongs 0.79 nM. With `CC(C)Sc1nc2sc3c(c2c2nnc(SCC(=O)NCc4ccco4)n12)CCCC3`, the PGE2 EC50 with compound came out at 0.93 nM. In the case of `CCOC(=O)CSc1ncnc2c1sc1nc(N3CCOCC3)c3c(c12)CCCC3`, the PGE2 EC50 with compound stood at 0.32 nM. Take `COc1ccc(S(=O)(=O)N(Cc2cccs2)C2CCCC2)cc1`: the PGE2 EC50 with compound amounted to 1.26 nM.

Consider `CC(Sc1nnc(-c2cccs2)n1Cc1ccccc1)C(=O)NCc1ccc2c(c1)OCO2` (stereo not given), for which the PGE2 EC50 with compound was determined as 0.62 nM. For `O=C(NCCC1=CCCCC1)c1cccc2c1C(=O)N(C1CCCCC1)C2`, the PGE2 EC50 with compound turned out to be 1.18 nM. As to `Cc1ccccc1C(=O)Nc1ccccc1Sc1ccccc1`, the PGE2 EC50 with compound was 0.86 nM. With `CCOC(=O)CSc1nc(-c2ccccc2)nc2ccccc12`, the PGE2 EC50 with compound worked out at 0.87 nM. On to `c1ccc(CCc2ccccc2-c2nc(-c3ccccn3)no2)cc1`, for which the PGE2 EC50 with compound was determined as 0.32 nM.

Take `CCC1C/C(=C/c2ccco2)C(=O)/C(=C/c2ccco2)C1` (stereo not given): the PGE2 EC50 with compound is 1.02 nM. `O=C(c1ccc(Cl)cc1)c1oc2ccccc2c1CS(=O)c1ccccc1` (stereo not given): the PGE2 EC50 with compound stood at 0.87 nM. Take `CCNc1nc(NCC)nc(SCCOc2ccc(C)cc2)n1`: the PGE2 EC50 with compound came out at 0.7 nM.

Consider `CCN(CC)CCN1C(=O)c2cccc3cc(N)cc(c23)C1=O`, for which the PGE2 EC50 with compound was determined as 2.64 nM. Same read-out and setting: the result for `CC(C)Sc1cc(N2CCOCC2)nc(-c2ccc(Cl)cc2)n1` reads 1.02 nM; that for `CC(=C\c1ccccc1)/C=C1/SC(=S)N(C(C(=O)O)C(C)C)C1=O` (stereo not given), 1.31 nM. Still for that read-out and setting: the result for `C=CCSc1nc2ccccc2n1S(=O)(=O)c1ccc(Cl)cc1` reads 0.85 nM. Same read-out and setting: the result for `CCOC(=O)c1c(NC(=O)Cc2cccs2)sc(C)c1C` reads 0.87 nM; that for `CC1=C(/C=C/C(C)=C/C=C/C(C)=C/C(=O)O)C(C)(C)CCC1`, 1.19 nM. Turning to `COc1ccc(C2=Nn3c(nnc3C3CCCCC3)SC2)cc1OC`, the PGE2 EC50 with compound turned out to be 1.58 nM.

`COc1cc2nc(N3CCN(C(=O)C4CCCO4)CC3)nc(N)c2cc1OC` (stereo not given): the PGE2 EC50 with compound was found to be 0.85 nM. Consider `Cc1ccc(C)c(N=C2CCCN2Cc2ccccc2)c1C#N`, for which the PGE2 EC50 with compound worked out at 0.61 nM. For `Cn1c(=O)c2c(SCc3cccnc3)nc(CC(C)(C)C)nc2n(C)c1=O`, the PGE2 EC50 with compound came to 2.57 nM. As for `C=CCn1c(CNC(=O)c2cccs2)nnc1SCC(=O)c1ccc(Br)cc1`, the PGE2 EC50 with compound worked out at 1.83 nM. For `CC1=C[N+](=O)c2ccccc2[N+]1=O`, the PGE2 EC50 with compound was 0.94 nM.

As for `O=C(Nc1ccccc1N1CCCCC1)c1ccccc1F`, the PGE2 EC50 with compound was 0.61 nM. Consider `CNC[C@H](O)c1ccc(O)c(O)c1`, for which the PGE2 EC50 with compound was determined as 0.65 nM. For `CCOC(=O)c1ccccc1NC(=O)CSc1ccccc1`, the PGE2 EC50 with compound came to 1.07 nM. For the compound `CC(C)C(=O)c1cc2c(cc1NC(=O)c1ccccc1)OCCO2`, the PGE2 EC50 with compound is 0.88 nM. As for `C=C(C)COc1ccc2c(c1)CC[C@@H]1[C@H]3C/C(=N/O)C(=O)[C@]3(C)CC[C@@H]21`, the PGE2 EC50 with compound was 1.03 nM. Same read-out and setting: the result for `O=C(O)COc1ccc2occ(C(=O)c3ccccc3)c2c1` reads 0.86 nM; that for `Cc1cc(NC(=O)Cn2nnc3sc4c(c3c2=O)CCC(C(C)(C)C)C4)no1` (stereo not given), 0.98 nM. The same measure, in the same setting: the result for `COc1ccc2ccc(=O)oc2c1CC=C(C)C` reads 1.13 nM. Still for that read-out and setting: to `COc1ccc(OC)c(/C=C/C(=O)N2CCCc3ccccc32)c1` belongs 1.13 nM; to `CCOC(=O)c1c(C2CC2)csc1NC(=O)CSCc1c(C)noc1C`, 1.25 nM. Turning to `COc1cc2c(cc1OC)CN(c1ccc(-c3ccccc3OC)nn1)CC2`, the PGE2 EC50 with compound is 1.64 nM. The same measure, in the same setting: to `Cc1ccc(-c2csc(Nc3ccc(C(=O)O)cc3)[n+]2Cc2ccccc2)cc1` belongs 0.77 nM.
